Assays:
system Xc^− [1] = target: T1, system Xc^− (Homo sapiens, UniProt Q9UPY5); test: Cystine-induced glutamate release assay; format: cell-based; parameters: endogenous in cells; host or cells: H4 cells; conditions: H4 cells, sodium-free HEPES buffer, 50 μM L-Cystine, 2 hours, Amplex Red glutamate readout; read-out: pIC50 Cystine-induced glutamate release assay (converted)
T1 sequence (Q9UPY5 1-501): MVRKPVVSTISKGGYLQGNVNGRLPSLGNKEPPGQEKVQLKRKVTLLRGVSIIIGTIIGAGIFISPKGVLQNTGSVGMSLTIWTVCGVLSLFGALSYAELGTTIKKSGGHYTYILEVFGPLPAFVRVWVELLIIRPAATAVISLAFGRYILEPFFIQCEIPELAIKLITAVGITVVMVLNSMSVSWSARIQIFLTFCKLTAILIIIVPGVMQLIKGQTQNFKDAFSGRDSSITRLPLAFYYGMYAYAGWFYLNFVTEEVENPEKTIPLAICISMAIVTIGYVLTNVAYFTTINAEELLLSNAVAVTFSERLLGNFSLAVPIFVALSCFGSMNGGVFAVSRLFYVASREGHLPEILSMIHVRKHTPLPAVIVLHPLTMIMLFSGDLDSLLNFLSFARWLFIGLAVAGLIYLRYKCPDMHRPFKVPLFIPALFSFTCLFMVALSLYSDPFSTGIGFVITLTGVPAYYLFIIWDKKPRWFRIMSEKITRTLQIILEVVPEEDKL
T1 sequence (P08195 1-529 partner): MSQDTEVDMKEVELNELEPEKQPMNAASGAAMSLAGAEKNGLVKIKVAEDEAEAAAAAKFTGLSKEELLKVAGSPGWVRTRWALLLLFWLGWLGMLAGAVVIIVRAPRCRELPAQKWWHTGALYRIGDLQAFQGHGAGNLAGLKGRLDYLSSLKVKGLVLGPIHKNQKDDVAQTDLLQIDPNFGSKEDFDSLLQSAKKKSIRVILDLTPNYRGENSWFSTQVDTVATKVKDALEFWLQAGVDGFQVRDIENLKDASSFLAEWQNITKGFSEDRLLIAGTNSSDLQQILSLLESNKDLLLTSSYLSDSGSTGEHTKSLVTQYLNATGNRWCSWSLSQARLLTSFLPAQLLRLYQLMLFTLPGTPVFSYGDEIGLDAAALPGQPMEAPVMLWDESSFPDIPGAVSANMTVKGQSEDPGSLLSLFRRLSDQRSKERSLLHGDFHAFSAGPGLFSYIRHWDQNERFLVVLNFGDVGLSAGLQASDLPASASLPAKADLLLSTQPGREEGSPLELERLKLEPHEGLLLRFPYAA
How it was run: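 IC50 (reported as pIC50) normalized to DMSO 1% and Erastin 50 μM controls, from Amplex Red fluorescence of glutamate exported into supernatant. H4 cells were washed into sodium-free buffer to exclude EAAT transport, then given compound with 50 μM L-cystine for 2 h in the incubator.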

system Xc^− [2] = target: T1, system Xc^−; test: [^14C]L-Cystine uptake assay; format: cell-based; parameters: endogenous in cells; host or cells: H4 cells; conditions: H4 cells, sodium-free HEPES buffer, 0.5 μM L-[14C]Cystine and 4.5 μM L-Cystine, 1 hour at 37° C.; read-out: pIC50 [^14C] L-Cystine uptake assay (converted)
How it was run: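 Compound effect is given as pIC50, taken between controls of 1% DMSO and 50 μM Erastin. Human H4 cells were pretreated 15 min with compound in sodium-free buffer, then took up 0.5 μM [14C]cystine with 4.5 μM cold cystine for 1 hour at 37° C, read by scintillation proximity counting.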

| Compound | IC50 (system Xc^− [1]) | IC50 (system Xc^− [2]) |
| --- | --- | --- |
| Cc1c2c(cn(C)c1=O)N(CC(=O)Nc1ccc(C(F)F)cc1)C(=O)C(C)c1ccccc1-2 (single isomer, unassigned) [#368, N-[4-(difluoromethyl)phenyl]-2-[1,3,7-trimethyl-2,6-dioxo-7H-pyrido[4,3-a][3]benzazepin-5-yl]acetamide] | < 0.0158 µM | < 0.0158 µM |
| Cc1cc2c(cn1)-c1cncnc1C(C)C(=O)N2CC(=O)Nc1ccc(Cl)c(F)c1 (single isomer, unassigned) [#369, N-(4-chloro-3-fluoro-phenyl)-2-[8,13-dimethyl-9-oxo-4,6,10,14-tetrazatricyclo[9.4.0.0^2,7]pentadeca-1(15),2,4,6,11,13-hexaen-10-yl]acetamide] | 0.0158 to 0.0398 µM | 0.0158 to 0.0398 µM |
| COc1cc(F)c2c(c1)N(CC(=O)Nc1ccc(Cl)c(F)c1)C(=O)C(C)c1ncncc1-2 (single isomer, unassigned) [#371, N-(4-chloro-3-fluoro-phenyl)-2-[11-fluoro-9-methoxy-5-methyl-6-oxo-5H-pyrimido[4,5-d][1]benzazepin-7-yl]acetamide] | < 0.0158 µM | < 0.0158 µM |
| CC1C(=O)N(CC(=O)Nc2ccc(Cl)c(F)c2)c2cc(F)cc(F)c2-c2cncnc21 (single isomer, unassigned) [#372, N-(4-chloro-3-fluoro-phenyl)-2-[9,11-difluoro-5-methyl-6-oxo-5H-pyrimido[4,5-d][1]benzazepin-7-yl]acetamide] | < 0.0158 µM | 0.0158 to 0.0398 µM |
| Cc1ncc2c(n1)C(C)C(=O)N(CC(=O)Nc1ccc(Cl)c(F)c1)c1cc(Cl)cc(F)c1-2 (single isomer, unassigned) [#373, 2-[9-chloro-11-fluoro-3,5-dimethyl-6-oxo-5H-pyrimido[4,5-d][1]benzazepin-7-yl]-N-(4-chloro-3-fluoro-phenyl)acetamide] | 0.0158 to 0.0398 µM | 0.0158 to 0.0398 µM |
| Cc1cc2c(c(F)n1)-c1ccc(F)cc1C(O)C(=O)N2CC(=O)Nc1ccc(C(F)F)cc1 (single isomer, unassigned) [#380, 2-[1,9-difluoro-7-hydroxy-3-methyl-6-oxo-7H-pyrido[4,3-d][3]benzazepin-5-yl]-N-[4-(difluoromethyl)phenyl]acetamide] | < 0.0158 µM | < 0.0158 µM |
| O=C(CN1C(=O)C(CO)c2ncccc2-c2c(F)cc(F)cc21)Nc1ccc(Cl)c(F)c1 (single isomer, unassigned) [#381, N-(4-chloro-3-fluoro-phenyl)-2-[9,11-difluoro-5-(hydroxymethyl)-6-oxo-5H-pyrido[2,3-d][1]benzazepin-7-yl]acetamide] | 0.0398 to 0.1 µM | 0.1 to 0.501 µM |
| O=C(CN1C(=O)C(CO)c2ncccc2-c2c(F)cc(Cl)cc21)Nc1ccc(Cl)c(F)c1 (single isomer, unassigned) [#382, 2-[9-chloro-11-fluoro-5-(hydroxymethyl)-6-oxo-5H-pyrido[2,3-d][1]benzazepin-7-yl]-N-(4-chloro-3-fluoro-phenyl)acetamide] | 0.0158 to 0.0398 µM | 0.0158 to 0.0398 µM |
| CC1C(=O)N(CC(=O)Nc2ccc(Cl)c(F)c2)c2cc(Cl)cc(F)c2-c2nnccc21 (single isomer, unassigned) [#383, 2-[9-chloro-11-fluoro-5-methyl-6-oxo-5H-pyridazino[4,3-d][1]benzazepin-7-yl]-N-(4-chloro-3-fluoro-phenyl)acetamide] | 0.0398 to 0.1 µM | 0.0158 to 0.0398 µM |
| CC1C(=O)N(CC(=O)Nc2ccc(Cl)c(F)c2)c2cc(Cl)cc(F)c2-c2ccnnc21 (single isomer, unassigned) [#384, 2-[9-chloro-11-fluoro-5-methyl-6-oxo-5H-pyridazino[3,4-d][1]benzazepin-7-yl]-N-(4-chloro-3-fluoro-phenyl)acetamide] | < 0.0158 µM | < 0.0158 µM |
| CC1C(=O)N(CC(=O)Nc2ccc(Cl)c(F)c2)c2cc(Cl)cc(F)c2-c2cnncc21 (single isomer, unassigned) [#385, 2-[9-chloro-11-fluoro-5-methyl-6-oxo-5H-pyridazino[4,5-d][1]benzazepin-7-yl]-N-(4-chloro-3-fluoro-phenyl)acetamide] | 0.0158 to 0.0398 µM | < 0.0158 µM |
| Cc1cc2c(c(Cl)n1)-c1ccnn1C(C)C(=O)N2CC(=O)Nc1ccc(C(F)F)cc1 (single isomer, unassigned) [#386, 2-[14-chloro-7,12-dimethyl-8-oxo-5,6,9,13-tetrazatricyclo[8.4.0.0^2,6]tetradeca-1(14),2,4,10,12-pentaen-9-yl]-N-[4-(difluoromethyl)phenyl]acetamide] | < 0.0158 µM | < 0.0158 µM |
| COc1cc2c(c(Cl)n1)-c1ccnn1C(C)C(=O)N2CC(=O)Nc1ccc(Cl)c(F)c1 (single isomer, unassigned) [#387, N-(4-chloro-3-fluoro-phenyl)-2-[14-chloro-12-methoxy-7-methyl-8-oxo-5,6,9,13-tetrazatricyclo[8.4.0.0^2,6]tetradeca-1(10),2,4,11,13-pentaen-9-yl]acetamide] | 0.0158 to 0.0398 µM | 0.0158 to 0.0398 µM |
| Cc1cc2c(c(Cl)n1)-c1cc(F)nn1C(C)C(=O)N2CC(=O)Nc1ccc(C(F)F)cc1 (single isomer, unassigned) [#389, 2-[14-chloro-4-fluoro-7,12-dimethyl-8-oxo-5,6,9,13-tetrazatricyclo[8.4.0.0^2,6]tetradeca-1(14),2,4,10,12-pentaen-9-yl]-N-[4-(difluoromethyl)phenyl]acetamide] | < 0.0158 µM | < 0.0158 µM |
| CC1C(=O)N(CC(=O)Nc2ccc(Cl)c(F)c2)c2cc(C#N)c(F)cc2-c2cccnc21 (single isomer, unassigned) [#394, N-(4-chloro-3-fluoro-phenyl)-2-[9-cyano-10-fluoro-5-methyl-6-oxo-5H-pyrido[2,3-d][1]benzazepin-7-yl]acetamide] | 0.0158 to 0.0398 µM | 0.0398 to 0.1 µM |
| Cc1cc2c(cn1)-c1ccc(Cl)cc1C(C)C(=O)N2CC(=O)Nc1ccc(C(F)F)cc1 (single isomer, unassigned) [#396, 2-[9-chloro-3,7-dimethyl-6-oxo-7H-pyrido[3,4-a][3]benzazenin-5-yl]-N-[4-(difluoromethyl)phenyl]acetamide] | 0.0158 to 0.0398 µM | 0.0158 to 0.0398 µM |
| CC1C(=O)N(CC(=O)Nc2ccc(Cl)c(F)c2)c2cc(C(F)(F)F)nc(O)c2-c2ccccc21 (single isomer, unassigned) [#397, N-(4-chloro-3-fluoro-phenyl)-2-[1-hydroxy-7-methyl-6-oxo-3-(trifluoromethyl)-7H-pyrido[3,4-a][3]benzazepin-5-yl]acetamide] | 0.0398 to 0.1 µM | 0.0398 to 0.1 µM |
| CC1C(=O)N(CC(=O)Nc2ccc(C(F)F)cc2)c2ccnc(Cl)c2-c2cccnc21 (single isomer, unassigned) [#398, N-[4-(difluoromethyl)phenyl]-2-[3-chloro-10-methyl-9-oxo-4,8,12-triazatricyclo[9.4.0.0^2,7]pentadeca-1(11),2(7),3,5,12,14-hexaen-8-yl]acetamide] | 0.0158 to 0.0398 µM | 0.0398 to 0.1 µM |
| Cc1cc2c(c(F)n1)-c1ncccc1C(C)C(=O)N2CC(=O)Nc1ccc(Cl)c(F)c1 (single isomer, unassigned) [#401, N-(4-chloro-3-fluoro-phenyl)-2-[15-fluoro-8,13-dimethyl-9-oxo-3,10,14-triazatricyclo[9.4.0.0^2,7]pentadeca-1(15),2,4,6,11,13-hexaen-10-yl]acetamide] | < 0.0158 µM | < 0.0158 µM |
| COc1cc2c(c(F)n1)-c1cc(F)cnc1C(C)C(=O)N2CC(=O)Nc1ccc(Cl)c(F)c1 (single isomer, unassigned) [#403, N-(4-chloro-3-fluoro-phenyl)-2-[3,14-difluoro-5-methoxy-10-methyl-9-oxo-4,8,12-triazatricyclo[9.4.0.0^2,7]pentadeca-1(11),2(7),3,5,12,14-hexaen-8-yl]acetamide] | < 0.0158 µM | < 0.0158 µM |
